Source: ChEMBL document CHEMBL5042504 (J Med Chem, 2022)
The source made the active and inactive calls. The calls are words filed in the database; no cut-off is given here.

Tests used:
[1] = target: T1, Protein deacetylase HDAC6 (Homo sapiens, UniProt Q9UBN7); test: Inhibition of human recombinant HDAC6 using Boc-Lys(acetyl)-AMC substrate incubated for 2 hrs by fluorescence based assay
T1 sequence (Q9UBN7 whole entry): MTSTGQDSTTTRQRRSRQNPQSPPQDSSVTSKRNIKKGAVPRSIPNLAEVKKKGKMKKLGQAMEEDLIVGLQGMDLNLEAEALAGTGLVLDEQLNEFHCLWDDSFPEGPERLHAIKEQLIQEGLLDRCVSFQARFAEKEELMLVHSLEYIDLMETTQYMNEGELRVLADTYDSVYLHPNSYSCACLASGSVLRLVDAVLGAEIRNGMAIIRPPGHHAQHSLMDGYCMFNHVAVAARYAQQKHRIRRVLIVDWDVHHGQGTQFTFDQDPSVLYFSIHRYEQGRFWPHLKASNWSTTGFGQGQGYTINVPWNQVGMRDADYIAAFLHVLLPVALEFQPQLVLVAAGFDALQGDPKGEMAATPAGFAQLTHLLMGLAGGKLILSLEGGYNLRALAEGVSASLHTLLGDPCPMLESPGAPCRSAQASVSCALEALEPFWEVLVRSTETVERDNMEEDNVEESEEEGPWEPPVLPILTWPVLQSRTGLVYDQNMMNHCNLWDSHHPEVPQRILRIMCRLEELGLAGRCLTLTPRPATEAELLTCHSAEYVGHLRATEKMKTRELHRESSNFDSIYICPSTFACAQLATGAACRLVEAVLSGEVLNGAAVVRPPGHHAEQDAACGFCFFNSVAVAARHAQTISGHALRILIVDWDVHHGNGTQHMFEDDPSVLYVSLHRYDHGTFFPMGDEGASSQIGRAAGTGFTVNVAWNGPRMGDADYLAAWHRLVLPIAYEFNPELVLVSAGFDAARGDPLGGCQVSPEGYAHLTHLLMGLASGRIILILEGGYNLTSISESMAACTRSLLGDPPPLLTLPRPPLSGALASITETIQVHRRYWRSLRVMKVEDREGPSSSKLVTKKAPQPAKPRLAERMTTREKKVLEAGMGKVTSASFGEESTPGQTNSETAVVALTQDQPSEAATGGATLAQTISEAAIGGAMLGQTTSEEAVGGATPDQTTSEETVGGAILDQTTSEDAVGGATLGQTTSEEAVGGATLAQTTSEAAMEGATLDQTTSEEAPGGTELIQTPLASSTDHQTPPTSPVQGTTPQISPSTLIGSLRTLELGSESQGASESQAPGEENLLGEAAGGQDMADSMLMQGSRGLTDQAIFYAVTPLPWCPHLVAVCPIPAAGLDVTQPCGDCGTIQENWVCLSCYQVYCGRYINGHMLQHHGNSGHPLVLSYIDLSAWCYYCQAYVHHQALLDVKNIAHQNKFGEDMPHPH

[2] = target: Histone deacetylase 1 (Homo sapiens, UniProt Q13547); test: Inhibition of human recombinant HDAC1 using Boc-Lys(acetyl)-AMC substrate incubated for 2 hrs by fluorescence based assay
[3] = AUC (0 to infinity) in CD-1 mouse at 5 mg/kg, iv measured upto 24 hrs; format: ADME, organism-based; parameters: route intravenous, dose 5 mg/kg, time <=24; details: in vivo
[4] = target: T2, Histone deacetylase 8 (Homo sapiens, UniProt Q9BY41); test: Inhibition of human recombinant HDAC8 using Boc-Lys(triflouroacetyI)-AMC substrate incubated for 2 hrs by fluorescence based assay
T2 sequence (Q9BY41 whole entry): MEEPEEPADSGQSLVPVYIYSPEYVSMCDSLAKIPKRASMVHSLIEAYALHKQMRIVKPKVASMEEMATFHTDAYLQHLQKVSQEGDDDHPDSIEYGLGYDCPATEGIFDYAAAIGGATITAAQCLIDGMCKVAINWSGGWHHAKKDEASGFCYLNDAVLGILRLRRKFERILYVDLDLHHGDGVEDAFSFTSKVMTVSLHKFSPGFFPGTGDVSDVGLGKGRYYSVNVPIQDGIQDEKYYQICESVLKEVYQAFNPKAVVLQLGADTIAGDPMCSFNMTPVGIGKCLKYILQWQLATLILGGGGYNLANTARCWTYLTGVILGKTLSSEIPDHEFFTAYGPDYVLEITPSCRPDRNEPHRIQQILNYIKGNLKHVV

[5] = target: T3, Polyamine deacetylase HDAC10 (Homo sapiens, UniProt Q969S8); test: Inhibition of human recombinant HDAC10 using Boc-Lys(triflouroacetyI)-AMC substrate incubated for 2 hrs by fluorescence based assay
T3 sequence (Q969S8 whole entry): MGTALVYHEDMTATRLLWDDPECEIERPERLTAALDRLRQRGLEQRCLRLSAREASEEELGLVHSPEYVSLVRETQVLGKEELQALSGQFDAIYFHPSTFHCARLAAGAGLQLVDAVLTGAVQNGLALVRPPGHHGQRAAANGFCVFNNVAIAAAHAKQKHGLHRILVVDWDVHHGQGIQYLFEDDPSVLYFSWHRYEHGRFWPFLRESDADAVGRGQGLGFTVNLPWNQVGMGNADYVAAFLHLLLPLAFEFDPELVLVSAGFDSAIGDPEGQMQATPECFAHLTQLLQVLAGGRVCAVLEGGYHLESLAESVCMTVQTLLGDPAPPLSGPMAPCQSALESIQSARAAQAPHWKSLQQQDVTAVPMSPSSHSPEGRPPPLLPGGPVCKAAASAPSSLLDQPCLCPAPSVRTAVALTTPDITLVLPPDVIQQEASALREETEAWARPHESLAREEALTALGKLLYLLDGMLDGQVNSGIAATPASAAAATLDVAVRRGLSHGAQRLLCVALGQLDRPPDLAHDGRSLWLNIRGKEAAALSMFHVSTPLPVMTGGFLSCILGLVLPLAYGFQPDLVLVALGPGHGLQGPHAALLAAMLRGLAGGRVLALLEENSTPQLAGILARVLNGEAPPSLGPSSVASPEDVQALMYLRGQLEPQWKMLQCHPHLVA

[6] = tested on: MOLM-13; test: Antiproliferative activity against human MOLM-13 cells assessed as reduction in cell viability measured after 48 hrs by multiplate reader method; details: MOLM-13, 48 h
[7] = tested on: HL-60; test: Cell cycle arrest in human […] HL60 cells assessed as accumulation at G2/M-phase at 500 nM measured after 24 hrs realtive to control; format: functional, cell-based
[8] = Drug uptake in BALB/c mouse xenografted with human AML MV4-11 cells assessed as tumor tissue at 4mg/kg, po measured after 0.5 to 6 hrs by LC-MS/MS; format: ADME, organism-based; details: in vivo, time 0.5-6 hrs
[9] = tested on: MV4-11; test: Up regulation of acetylated histoneH4 ine expression in human MV4-11 cells at 200 nM measured after 24 hrs by Western blot analysis; format: functional, cell-based
[10] = Drug distribution in BALB/c mouse lung measured at 4 mg/kg, po or ip after 0.5 hrs after 0.5 hrs; format: ADME, organism-based; details: in vivo
[11] = Drug distribution in BALB/c mouse lung measured at 4 mg/kg, po or ip after 2 to 8 hrs after 0.5 hrs; format: ADME, organism-based; details: in vivo, time 2-8 hrs
[12] = Drug distribution in tumor of BALB/c mouse xenografted with human MV4-11 cells assessed as measured after 0.5 hrs; format: ADME; details: read-out: Ct

Histone deacetylase 1, sequence (Q13547 whole entry): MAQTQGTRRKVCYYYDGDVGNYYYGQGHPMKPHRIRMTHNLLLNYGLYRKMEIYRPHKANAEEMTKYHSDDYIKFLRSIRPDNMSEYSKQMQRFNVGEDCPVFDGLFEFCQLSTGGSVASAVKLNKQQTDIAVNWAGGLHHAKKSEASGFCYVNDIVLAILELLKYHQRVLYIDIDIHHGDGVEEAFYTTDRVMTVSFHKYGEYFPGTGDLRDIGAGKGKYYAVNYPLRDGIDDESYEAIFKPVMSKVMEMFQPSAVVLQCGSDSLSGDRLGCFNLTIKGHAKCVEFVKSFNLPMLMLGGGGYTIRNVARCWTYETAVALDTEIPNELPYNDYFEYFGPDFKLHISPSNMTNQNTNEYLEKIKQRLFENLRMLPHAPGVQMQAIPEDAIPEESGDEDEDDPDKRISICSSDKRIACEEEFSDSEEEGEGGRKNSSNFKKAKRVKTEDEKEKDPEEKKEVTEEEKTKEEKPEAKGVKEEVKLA

| Compound | IC50 [1] [µM] | IC50 [2] [µM] | AUC [3] [ng·h/mL] | IC50 [4] [µM] | IC50 [5] [µM] | IC50 [6] [µM] | Activity [7] | Drug uptake [8] | Activity [9] | Drug uptake [10] | Drug uptake [11] | concentration at 0.5 h [12] [ng/g] |
| --- | --- | --- | --- | --- | --- | --- | --- | --- | --- | --- | --- | --- |
| CCCNNC(=O)c1ccc(CNC(=O)c2cc3ccccc3[nH]2)cc1 | > 10 | 0.00301 | 32179 | > 5 | > 5 | 0.0404 | Active | Active | Active | Active | Active | 1130 |
| CCCNNC(=O)c1ccc(CNC(=O)/C=C/c2ccccc2)cc1 | > 10 |  |  | > 5 | > 5 | 0.103 |  |  | Active |  |  |  |
